This note sets out measurements from ChEMBL document CHEMBL5053525, “Synthesis and antiviral effect of phosphamide modified vidarabine for treating HSV 1 infections” (Bioorg Med Chem Lett, 2021).

Calls of active or inactive are those of the source. The calls are words filed in the database; no cut-off is given here.

Data set [1] deals with Human alphaherpesvirus 1. Nature of the data set: Antiviral activity against HSV-1 infected in human Huh-7 cells assessed as inhibition of viral replication by measuring ICPO level at 10 uM pre-infected with viral particles for 2 hrs followed by compound treatment for 24 hrs by Western blot analysis. The class given is functional, organism-based. (A western blot detects proteins with antibodies after separation by electrophoresis.)

Data set [2] relates to Human alphaherpesvirus 1. Nature of the data set: Antiviral activity against HSV-1 infected in human HepG2 cells assessed as inhibition of viral replication by measuring ICPO level at 10 uM pre-infected with viral particles for 2 hrs followed by compound treatment for 24 hrs by Western blot analysis. The class given is functional, organism-based.
Data set [3] deals with Human alphaherpesvirus 1. Nature of the data set: Antiviral activity against HSV-1 infected in human Huh-7 cells assessed as reduction in plaque forming units at 1 uM measured after 48 hrs by virus titre method. The class given is functional.
The test system of data set [4] is Human alphaherpesvirus 1. Nature of the data set: Antiviral activity against HSV-1 infected in human Huh-7 cells assessed as inhibition of viral replication by measuring ICPO level. As to conditions: dose 0.1-1.6 µM. The class given is functional, organism-based.
Data set [5] relates to Human alphaherpesvirus 1. Nature of the data set: Antiviral activity against GFP-expressing HSV-1 assessed as reduction in viral growth by fluorescence assay. The class given is functional, organism-based.
In the next data set the test system is Huh-7. Nature of the data set: Cytotoxicity against human Huh-7 cells assessed as effect on cell viability at 10 uM measured by MTT asay. To be noted: huh-7, 10 µM. The class given is cell-based.
For data set [6], the system named is Human alphaherpesvirus 1. Nature of the data set: Antiviral activity against HSV-1 infected in human Huh-7 cells assessed as reduction in plaque forming units at 1 uM measured after 48 hrs by virus titre method relative to NTC. The class given is functional.
Data set [7] has as its system Human alphaherpesvirus 1. Nature of the data set: Antiviral activity against HSV-1 infected in African green monkey Vero cells assessed as inhibition of viral replication by measuring ICPO level at 10 uM pre-infected with viral particles for 2 hrs followed by compound treatment for 24 hrs by Western blot analysis. In kind it is functional, organism-based.

Regarding `CC(C)OC(=O)[C@H](Cc1c[nH]c2ccccc12)N[P@](=O)(OC[C@H]1O[C@@H](n2cnc3c(N)ncnc32)[C@@H](O)[C@@H]1O)Oc1ccccc1`, the inhibition result in the data set with Human alphaherpesvirus 1 [1] and with Human alphaherpesvirus 1 [2] was “Active” each time.

A word on the EC50: it is the midpoint of the concentration-response curve. On to `CC(C)C[C@H](N[P@](=O)(OC[C@H]1O[C@@H](n2cnc3c(N)ncnc32)[C@@H](O)[C@@H]1O)Oc1ccccc1)C(=O)OC(C)C`, for which the inhibition entry in the data set on Human alphaherpesvirus 1 [1] and with Human alphaherpesvirus 1 [2] was “Active” throughout. In the data set on Human alphaherpesvirus 1 [3], the result was inactive. The inhibition entry in the data set on Human alphaherpesvirus 1 [4] is “Dose-dependent effect”. Also, the EC50 in the data set with Human alphaherpesvirus 1 [5] was 0.526 µM. For the same compound, the Activity entry with Huh-7 was “Non-Toxic”. In addition, in the data set with Human alphaherpesvirus 1 [6], the “fold change (FC)” value came out at 1000. In the data set with Human alphaherpesvirus 1 [7], the inhibition result is “inactive”.

With `CCCCCOC(=O)Nc1ncnc2c1ncn2[C@@H]1O[C@H](CO[P@@](=O)(N[C@@H](C)C(=O)OC(C)C)Oc2ccccc2)[C@@H](O)[C@@H]1O`, the inhibition entry in the data set with Human alphaherpesvirus 1 [1] and in the data set on Human alphaherpesvirus 1 [2] was “Active” each time.

On to `COC(=O)[C@H](NP(=O)(OC[C@H]1O[C@@H](n2cnc3c(N)ncnc32)[C@@H](O)[C@@H]1O)Oc1ccccc1)C(C)C` (stereo partly specified), for which the inhibition entry in the data set with Human alphaherpesvirus 1 [1] and in the data set with Human alphaherpesvirus 1 [2] was “Active” each time.

Regarding `CC(C)OC(=O)[C@@H](C)N[P@](=O)(OC[C@H]1O[C@@H](n2cnc3c(N)ncnc32)[C@@H](O)[C@@H]1O)Oc1ccccc1`, the inhibition result in the data set on Human alphaherpesvirus 1 [1] and in the data set on Human alphaherpesvirus 1 [2] was “Active” in each case.

In the case of `CC(C)OC(=O)[C@@H](NP(=O)(OC[C@H]1O[C@@H](n2cnc3c(N)ncnc32)[C@@H](O)[C@@H]1O)Oc1ccccc1)C(C)C` (stereo partly specified), the inhibition entry in the data set with Human alphaherpesvirus 1 [1] and with Human alphaherpesvirus 1 [2] was “Active” each time.

In the case of `CC(C)OC(=O)[C@H](C)N[P@](=O)(OC[C@H]1O[C@@H](n2cnc3c(N)ncnc32)[C@@H](O)[C@@H]1O)Oc1ccccc1`, the inhibition result with Human alphaherpesvirus 1 [1] and with Human alphaherpesvirus 1 [2] was “Active” each time.

Take `CSCC[C@H](NP(=O)(OC[C@H]1O[C@@H](n2cnc3c(N)ncnc32)[C@@H](O)[C@@H]1O)Oc1ccccc1)C(=O)OC(C)C` (stereo partly specified): the inhibition entry in the data set on Human alphaherpesvirus 1 [1] and in the data set with Human alphaherpesvirus 1 [2] was “Active” throughout.

For `COC(=O)[C@@H](NP(=O)(OC[C@H]1O[C@@H](n2cnc3c(N)ncnc32)[C@@H](O)[C@@H]1O)Oc1ccccc1)C(C)C` (stereo partly specified), the inhibition entry with Human alphaherpesvirus 1 [1] and in the data set with Human alphaherpesvirus 1 [2] was “Active” in each case.

As for `CC(C)OC(=O)[C@H](C)NP(=O)(OC[C@H]1O[C@@H](n2cnc3c(N)ncnc32)[C@@H](O)[C@@H]1O)Oc1ccccc1` (stereo partly specified), the inhibition entry with Human alphaherpesvirus 1 [1] and in the data set with Human alphaherpesvirus 1 [2] was “Active” each time.

For `CC(C)OC(=O)CN[P@](=O)(OC[C@H]1O[C@@H](n2cnc3c(N)ncnc32)[C@@H](O)[C@@H]1O)Oc1ccccc1`, the inhibition entry with Human alphaherpesvirus 1 [1] and in the data set with Human alphaherpesvirus 1 [2] was “Active” each time.

On to `NC(=O)c1ncn([C@@H]2O[C@H](CO)[C@@H](O)[C@H]2O)n1` [RIBAVIRIN], for which the Activity with Human alphaherpesvirus 1 [3] turned out to be 100 PFU/ml.

Turning to `CC(C)C[C@H](NP(=O)(OC[C@H]1O[C@@H](n2cnc3c(N)ncnc32)[C@@H](O)[C@@H]1O)Oc1ccccc1)C(=O)OC(C)C` (stereo partly specified), the inhibition entry in the data set on Human alphaherpesvirus 1 [1] and in the data set on Human alphaherpesvirus 1 [2] was “Active” throughout. The inhibition entry in the data set with Human alphaherpesvirus 1 [4] was “Dose-dependent effect”. For the same compound, in the data set with Human alphaherpesvirus 1 [5], the EC50 came to 1.18 µM. The Activity entry in the data set on Huh-7 is reported as “Non-Toxic”. Also, in the data set on Human alphaherpesvirus 1 [7], the inhibition result was “inactive”.

As for `CC(C)OC(=O)[C@H](Cc1ccccc1)N[P@](=O)(OC[C@H]1O[C@@H](n2cnc3c(N)ncnc32)[C@@H](O)[C@@H]1O)Oc1ccccc1`, the inhibition entry in the data set with Human alphaherpesvirus 1 [1] and in the data set with Human alphaherpesvirus 1 [2] was “Active” throughout. The inhibition entry in the data set on Human alphaherpesvirus 1 [4] is “Dose-dependent effect”. Besides, the EC50 in the data set with Human alphaherpesvirus 1 [5] came to 1.06 µM. In addition, in the data set on Huh-7, the Activity result is recorded as “Non-Toxic”. Further, the inhibition result in the data set on Human alphaherpesvirus 1 [7] is “inactive”.

`CC(C)OC(=O)[C@@H](N[P@](=O)(OC[C@H]1O[C@@H](n2cnc3c(N)ncnc32)[C@@H](O)[C@@H]1O)Oc1ccccc1)C(C)C`: the inhibition entry in the data set with Human alphaherpesvirus 1 [1] and in the data set with Human alphaherpesvirus 1 [2] was “Active” in each case.

For the compound `Nc1nc2c(ncn2COC(CO)CO)c(=O)[nH]1` [GANCICLOVIR], the concentration for a half-maximal effect (EC50) in the data set on Human alphaherpesvirus 1 [5] was under 0.1 µM.

Consider `CSCC[C@H](N[P@](=O)(OC[C@H]1O[C@@H](n2cnc3c(N)ncnc32)[C@@H](O)[C@@H]1O)Oc1ccccc1)C(=O)OC(C)C`, for which the inhibition result in the data set on Human alphaherpesvirus 1 [1] and in the data set on Human alphaherpesvirus 1 [2] was “Active” each time.
